Legend:
Plasmopara viticola = experiment: In vivo test on Plasmopara viticola (grape downy mildew); conditions: in Vitis vinifera, 168 h, read-out: protection
Puccinia recondita = experiment: In vivo test on Puccinia recondita (brown rust of wheat); conditions: read-out: protection
Phytophthora infestans = type: in vivo; conditions: concentration at which 75% inhibition of the disease is observed; tomato seedlings (Marmande) sprayed 24 hours before infection with Phytophthora infestans spores; read seven days after infecting vs controls
[1] = system: Helminthosporium gramineum; experiment: In vitro test on PDA medium, Helminthosporium gramineum; type: cell-based; conditions: 120 h, dose of 20 ppm in PDA medium, 5 days at 20° C., compared with control dish, read-out: degree of inhibition of the fungus
Pythium rostratum = experiment: In vitro test on PDA medium, Pythium rostratum; conditions: Globisporangium rostratum, 120 h, read-out: degree of inhibition of the fungus
Experimental: (§1) Each test is carried out in the following way: a nutrient medium consisting of potato, glucose and gelose (PDA medium) is introduced in the supercooled state into a series of Petri dishes (100 ml per dish) after sterilization in an autoclave at 120° C.
(§2) While filling the dishes, an acetone solution of the active material is injected into the supercooled medium to obtain the desired final concentration.
(§3) After 24 hours, each dish is cultured by depositing a fragment of ground mycelium arising from a previous culture of the same fungus.
(§4) For each compound tested, the degree of inhibition of the fungus studied is thus determined for a dose of 20 ppm.

Pythium vexans = experiment: In vitro test on PDA medium, Pythium vexans; conditions: Phytopythium vexans, 120 h, read-out: degree of inhibition of the fungus
Experimental: as §1, §2, §3, §4

Alternaria alternata = experiment: In vitro test on PDA medium, Alternaria alternata; conditions: 120 h, read-out: degree of inhibition of the fungus
Experimental: as §1, §2, §3, §4

| SMILES | IC75 (ppm) (Phytophthora infestans) | melting point [°C] | other results |
| --- | --- | --- | --- |
| COC1=NC2(CCc3ccccc32)C(=O)N1Nc1ccccc1 (stereo not drawn) [Compound 410] |  |  | pest or weed control at 1000 µg/mL (Plasmopara viticola): ≥ 75%; pest or weed control at 1000 µg/mL (Puccinia recondita): ≥ 75% |
| COC1=NC(C)(c2ccccc2)C(=O)N1Nc1ccccc1 (stereo not drawn) [Compound 504] | >1000 ppm | 132 |  |
| CSC1=NC(C)(c2ccccc2)C(=O)N1Nc1ccccc1 (racemic) [501 + 502] | 110 ppm |  |  |
| COC1=NC(C)(c2ccc(Br)cc2)C(=O)N1Nc1ccccc1 (stereo not drawn) [Compound 505] | 37 ppm | 202 |  |
| CSC1=NC2(CCCc3ccccc32)C(=O)N1Nc1ccc(Cl)cc1 (stereo not drawn) |  | 191 |  |
| CSC1=N[C@@](C)(c2ccccc2)C(=O)N1Nc1ccccc1 [Compound 501, (+)-(4S)-4-methyl-2-methylthio-4-phenyl-1-phenylamino-2-imidazolin-5-one] | 37 ppm |  |  |
| CSC1=NC(C)(c2ccccc2)C(=O)N1Nc1ccccc1 (stereo not drawn) [Compound 502] | >1000 ppm |  |  |
| COC1=N[C@@](C)(c2ccccc2)C(=O)N1Nc1ccccc1 [Compound 503, (+)-(4S)-4-methyl-2-methoxy-4-phenyl-1-phenylamino-2-imidazolin-5-one] | 110 ppm | 132 |  |
| CSC1=N[C@@](C)(c2ccc(F)cc2)C(=O)N1Nc1cccc(F)c1 [Compound 513] | 37 ppm |  |  |
| CC1=NC(C)(c2ccccc2)C(=O)N1Nc1ccccc1 (stereo not drawn) [Compound 201, 2,4-dimethyl-4-phenyl-1-phenylamino-2-imidazolin-5-one] |  | 135 |  |
| CSC1=NC2(CCCc3ccccc32)C(=O)N1Nc1ccccc1Cl (stereo not drawn) [Compound 104] |  | 168 |  |
| COC1=NC(C)(c2ccc(Br)cc2)C(=O)N1Nc1ccccc1 (racemic) [505 + 506] | >1000 ppm |  |  |
| CSC1=NC(C)(c2ccccc2)C(=O)N1Nc1ccccc1 (stereo not drawn) [Compound 9, 4-methyl-2-methylthio-4-phenyl-1-phenylamino-2-imidazolin-5-one] |  |  | inhibition at 20 ppm [1]: 80 to 100%; inhibition at 20 ppm (Pythium rostratum): 80 to 100%; inhibition at 20 ppm (Pythium vexans): 80 to 100% |
| CCC1(c2ccccc2)N=C(SC)N(Nc2ccccc2)C1=O (stereo not drawn) [Compound 48, 4-ethyl-2-methylthio-4-phenyl-1-phenylamino-2-imidazolin-5-one] |  | 147 |  |
| CSC1=NC(C)(c2ccccc2)C(=O)N1N(C)c1ccccc1 (stereo not drawn) [Compound 22, 4-methyl-1-(N-methyl-N-phenylamino)-2-methylthio-4-phenyl-2-imidazolin-5-one] |  | 124 | inhibition at 20 ppm (Pythium rostratum): 80 to 100%; inhibition at 20 ppm (Alternaria alternata): 80 to 100%; inhibition at 20 ppm (Pythium vexans): 80 to 100% |
| CSC1=N[C@@](C)(c2ccc(F)cc2)C(=O)N1Nc1ccccc1 [Compound 511] | 12-37 ppm |  |  |
| CSC1=NC(C)(c2cccnc2)C(=O)N1Nc1ccccc1 (stereo not drawn) |  | 156 |  |
| CSC1=NC(C)(c2ccc(F)cc2)C(=O)N1Nc1ccccc1 (racemic) [511 + 512] | 110 ppm |  |  |

| SMILES | IC75 (ppm) (Phytophthora infestans) | melting point [°C] | other results |
| --- | --- | --- | --- |
| COC1=NC2(CCCc3ccccc32)C(=O)N1Nc1ccccc1 (stereo not drawn) [Compound 407] |  |  | pest or weed control at 1000 µg/mL (Plasmopara viticola): ≥ 75%; pest or weed control at 1000 µg/mL (Puccinia recondita): ≥ 75% |
| COC1=NC(C)(c2ccc(F)cc2)C(=O)N1Nc1ccccc1 (single isomer, unassigned) [Compound 525] | 37 ppm |  |  |
| COC1=NC(C)(c2ccc(F)cc2)C(=O)N1Nc1ccccc1 (single isomer, unassigned) [Compound 526] | >1000 ppm |  |  |
| CSC1=NC2(CCc3ccccc32)C(=O)N1Nc1ccccc1 (stereo not drawn) [Compound 98] |  | 85 |  |
| CSC1=NC(C)(c2ccccc2)C(=O)N1N(C(C)=O)c1ccccc1 (stereo not drawn) [Compound 23, 4-methyl-1-(N-acetyl-N-phenylamino)-2-methylthio-4-phenyl-2-imidazolin-5-one] |  | 132 |  |
| COC1=NC(C)(c2cccs2)C(=O)N1Nc1ccccc1 (stereo not drawn) [Compound 486] |  |  | pest or weed control at 1000 µg/mL (Plasmopara viticola): ≥ 75%; pest or weed control at 1000 µg/mL (Puccinia recondita): ≥ 75% |
| COC1=NC(C)(c2ccc(Br)cc2)C(=O)N1Nc1ccccc1 (stereo not drawn) [Compound 506] | >1000 ppm |  |  |
| CSC1=NC(C)(Cc2ccccc2)C(=O)N1Nc1ccccc1 (stereo not drawn) |  | 166 |  |
| COC1=NC(C)(c2ccc(F)cc2)C(=O)N1Nc1cccc(F)c1 (racemic) [527 + 528] | 37 ppm |  |  |
| CSC1=NC(c2ccccc2)C(=O)N1Nc1ccccc1 (stereo not drawn) |  | 190 |  |
| COC1=NC(C)(c2ccc(F)cc2)C(=O)N1Nc1cccc(F)c1 (single isomer, unassigned) [Compound 527] | 4-12 ppm |  |  |
| COC1=NC(C)(c2ccc(F)cc2)C(=O)N1Nc1ccccc1 (racemic) [525 + 526] | 110 ppm |  |  |
| COC1=NC(C)(c2ccccc2)C(=O)N1Nc1ccccc1 (racemic) [503 + 504] | 330 ppm |  |  |
| CSC1=NC(C)(c2ccccc2)C(=S)N1Nc1ccccc1 (stereo not drawn) [Compound 1, 4-methyl-2-methylthio-4-phenyl-1-phenylamino-2-imidazoline-5-thione] |  | 127 |  |
| CSC1=NC(C)(c2ccc(F)cc2)C(=O)N1Nc1cccc(F)c1 (racemic) [513 + 514] | 110 ppm |  |  |
| CSC1=NC(C)(c2ccccc2)C(=O)N1Cc1ccccc1 (stereo not drawn) [Compound 34, 1-benzyl-4-methyl-2-methylthio-4-phenyl-2-imidazolin-5-one] |  |  | inhibition at 20 ppm (Pythium rostratum): 80 to 100%; inhibition at 20 ppm (Pythium vexans): 80 to 100% |
| CSC1=NC2(CCCc3ccccc32)C(=O)N1Nc1ccccc1 (stereo not drawn) [Compound 97] |  | 158 |  |
| CSC1=NC2(CCCc3ccccc32)C(=O)N1Nc1ccccc1C (stereo not drawn) |  | 174 |  |

Source: US6344564B1, “Fungicidal 2-imidazolin-5-ones and 2-imidazoline-5-thiones” (priority 1992, dated 2002)
